{"source": "patent US4486434A", "about": "“Histamine H1 -antagonists” (Smith Kline & French Laboratories Limited, priority 1981, dated 1984)", "assay": "rat whole body radiography", "assay_type": "in vivo", "text": "This has been shown by rat whole body radiography."}
{"compound": "Cc1ccc(Cc2cnc(NCCCCc3ncc(Br)cc3C)[nH]c2=O)cn1", "note": "[Example 1, 2-[4-(5-bromo-3-methylpyrid-2-yl)-butylamino]-5-(6-methylpyrid-3-yl-methyl)-4-pyrimidone]", "values": [{"measurement": "entry into the central nervous system", "value": "does not enter the central nervous system"}]}
